Among the data in patent US9751885B2, “Cyclopropanamine compound and use thereof” (Takeda Pharmaceutical Company Limited, priority 2012, dated 2017) are IC50 values, retold here.

In one test the target is human LSD1(172-833) (Homo sapiens (Human), UniProt O60341). As to the kind of experiment: Measurement of LSD1 inhibitory activity (time-resolved fluorescence, biotin-histone H3 mono methylated K4 peptide). Type of test: biochemical. The procedure: When the turbidity reached 500 Klett units, the culture temperature was changed to 16° C., IPTG (Isopropyl β-D-1-thiogalactopyranoside) having a final concentration of 0.5 mM was added to induce expression, and the cells were cultured further for 14 hr. The culture medium was centrifuged at 6,000 g for 15 min, and Escherichia coil pellets were recovered.
Using Branson ultrasonic disintegrator, the suspension was disrupted by ultrasonication for 3 min, and centrifuged at 33,000 g for 60 min, and the supernatant was recovered. […] It was concentrated to 10 mL with AmiconUltra (NWCO 30K) (Millipore Japan), and purified with HiLoad 26/60 Superdex 200 pg column (GE Healthcare) equilibrated with Buffer A to give hLSD1 purified product (8.4 mg). The protein concentration of hLSD1 was measured by BCA Protein Assay Kit (Thermo Fisher Scientific K.K.) using bovine serum albumin as the standard.
(5) Measurement of LSD1 Inhibitory Activity
After reaction at room temperature for 5 min, 1 mM 2-PCPA solution was added 5 μL to terminate the reaction. A detection solution ([…] potassium fluoride, 0.1% BSA) containing europium-labeled anti-histone H3 antibody (Wako Pure Chemical Industries, Ltd.) and Streptavidin-XL665 (Cisbio) was further added by 5 μL, and the mixture was left standing for 60 min.

For a further test, the target named is MAO-A enzyme (Homo sapiens (Human), UniProt P21397). As to the kind of experiment: Measurement of MAO-A inhibitory activity (MAO-Glo Assay). Format: biochemical.
In a further test the target is MAO-B enzyme (Homo sapiens (Human), UniProt P27338). As to the kind of experiment: Measurement of MAO-B inhibitory activity (MAO-Glo Assay).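 Also: luminescence read-out, compound preincubated 10 min with enzyme then reacted 60 min at room temperature, inhibition relative to enzyme reaction without compound, blank lacking enzyme and compound.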 The settings on record: read-out: MAO-B IC50 value.

Where a name gives a salt, the structure may show the parent alone.

Chain of MAO-B enzyme (P27338 whole entry): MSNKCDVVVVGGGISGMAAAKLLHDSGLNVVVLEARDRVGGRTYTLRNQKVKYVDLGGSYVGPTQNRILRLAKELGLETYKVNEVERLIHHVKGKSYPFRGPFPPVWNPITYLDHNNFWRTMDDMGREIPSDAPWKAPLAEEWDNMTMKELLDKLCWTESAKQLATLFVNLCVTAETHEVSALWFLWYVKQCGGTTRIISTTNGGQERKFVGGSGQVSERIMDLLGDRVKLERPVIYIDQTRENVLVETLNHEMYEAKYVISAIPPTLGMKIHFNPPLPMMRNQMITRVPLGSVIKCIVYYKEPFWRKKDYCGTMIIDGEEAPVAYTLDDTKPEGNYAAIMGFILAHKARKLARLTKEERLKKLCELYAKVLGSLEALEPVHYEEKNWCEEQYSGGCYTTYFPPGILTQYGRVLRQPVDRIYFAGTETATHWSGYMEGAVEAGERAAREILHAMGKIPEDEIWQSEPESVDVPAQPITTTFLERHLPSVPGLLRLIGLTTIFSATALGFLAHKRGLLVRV
Chain of MAO-A enzyme (P21397 whole entry): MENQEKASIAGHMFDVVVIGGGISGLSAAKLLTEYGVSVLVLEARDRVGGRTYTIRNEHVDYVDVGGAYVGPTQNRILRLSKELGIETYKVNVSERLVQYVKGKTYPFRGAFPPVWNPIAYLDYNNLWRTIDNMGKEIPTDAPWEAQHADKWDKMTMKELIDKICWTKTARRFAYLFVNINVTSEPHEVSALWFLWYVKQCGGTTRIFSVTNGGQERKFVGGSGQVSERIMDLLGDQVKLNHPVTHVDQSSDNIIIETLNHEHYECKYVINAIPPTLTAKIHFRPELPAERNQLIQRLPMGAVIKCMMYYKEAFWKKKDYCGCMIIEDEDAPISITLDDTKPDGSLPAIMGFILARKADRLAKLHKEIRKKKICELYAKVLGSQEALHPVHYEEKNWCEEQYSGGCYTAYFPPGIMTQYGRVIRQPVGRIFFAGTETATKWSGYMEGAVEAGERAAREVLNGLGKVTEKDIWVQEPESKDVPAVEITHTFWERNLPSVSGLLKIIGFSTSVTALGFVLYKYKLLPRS

For orientation: IC50 means the concentration needed to halve the response being measured. In the case of `Cc1ncc(NC(=O)c2cccc([C@@H]3C[C@H]3NC3CCC3)c2)s1` (relative stereo) [Example 210, 3-(trans-2-(cyclobutylamino)cyclopropyl)-N-(2-methyl-1,3-thiazol-5-yl)benzamide dihydrochloride], the IC50 on human LSD1(172-833) was < 0.1 µM; against MAO-A enzyme, > 10 µM; at MAO-B enzyme, > 10 µM.
Consider `O=C(NCc1ccc(N2CCCC2=O)cc1)c1ccc([C@@H]2C[C@H]2NCC2CC2)cc1` (relative stereo) [Example 27, 4-(trans-2-((cyclopropylmethyl)amino)cyclopropyl)-N-(4-(2-oxopyrrolidin-1-yl)benzyl)benzamide trifluoroacetate], for which the IC50 is < 0.1 µM against human LSD1(172-833), > 10 µM at MAO-A enzyme and > 10 µM on MAO-B enzyme.
For the compound `Cc1cc(NC(=O)c2cccc([C@@H]3C[C@H]3NCC3CC3)c2)sn1` (relative stereo) [Example 152, 3-(trans-2-((cyclopropylmethyl)amino)cyclopropyl)-N-(3-methyl-1,2-thiazol-5-yl)benzamide hydrochloride], the IC50 at human LSD1(172-833) was < 0.1 µM; against MAO-A enzyme it was > 10 µM; at MAO-B enzyme, > 10 µM.
In the case of `Cc1ccc(CN[C@@H]2C[C@H]2c2ccc(C(=O)NCc3ccccc3)cc2)cc1` (relative stereo) [Example 34, N-benzyl-4-(trans-2-((4-methylbenzyl)amino)cyclopropyl)benzamide trifluoroacetate], the IC50 at human LSD1(172-833) is < 0.1 µM; at MAO-A enzyme it was 4.4 µM; at MAO-B enzyme it was > 10 µM.
Regarding `O=C(NC1CCCC1)c1cccc([C@@H]2C[C@H]2NC2CCN(C3CC3)CC2)c1` (relative stereo) [Example 199, N-cyclopentyl-3-(trans-2-((1-cyclopropylpiperidin-4-yl)amino)cyclopropyl)benzamide dihydrochloride], the IC50 against human LSD1(172-833) is < 0.1 µM; against MAO-A enzyme, > 10 µM; at MAO-B enzyme it was > 10 µM.
In the case of `N#CCN(Cc1ccccc1)C(=O)c1ccc([C@@H]2C[C@H]2NCC2CC2)cc1` (relative stereo) [Example 22, N-benzyl-N-(cyanomethyl)-4-(trans-2-((cyclopropylmethyl)amino)cyclopropyl)benzamide trifluoroacetate], the values for the IC50 against human LSD1(172-833), at MAO-A enzyme and at MAO-B enzyme were < 0.1 µM, > 10 µM and > 10 µM, respectively.
On to `CN(C(=O)c1cccc([C@@H]2C[C@H]2NCC2CC2)c1)c1ccccc1` (relative stereo) [Example 80, 3-(trans-2-((cyclopropylmethyl)amino)cyclopropyl)-N-methyl-N-phenylbenzamide hydrochloride], for which the IC50 at human LSD1(172-833) is < 0.1 µM; against MAO-A enzyme, 0.9 µM; at MAO-B enzyme, > 10 µM.
Consider `O=C(NCC(c1ccccc1)N1CCOCC1)c1ccc(C2CC2NCC2CC2)cc1` (stereo not drawn) [Example 24, 4-(trans-2-((cyclopropylmethyl)amino)cyclopropyl)-N-(2-(morpholin-4-yl)-2-phenylethyl)benzamide bis(trifluoroacetate)], for which the IC50 at human LSD1(172-833) is < 0.1 µM; on MAO-A enzyme it was > 10 µM; at MAO-B enzyme, > 10 µM.
Regarding `Cc1ncc(NC(=O)c2cccc([C@@H]3C[C@H]3NCC3CCOCC3)c2)s1` (relative stereo) [Example 90, N-(2-methyl-1,3-thiazol-5-yl)-3-(trans-2-((tetrahydro-2H-pyran-4-ylmethyl)amino)cyclopropyl)benzamide dihydrochloride], the IC50 is < 0.1 µM against human LSD1(172-833), > 10 µM against MAO-A enzyme and > 10 µM on MAO-B enzyme.
Take `Cc1cc(NC(=O)c2cccc([C@@H]3C[C@H]3NC3CCC(F)(F)CC3)c2)on1` (relative stereo) [Example 216, 3-(trans-2-((4,4-difluorocyclohexyl)amino)cyclopropyl)-N-(3-methyl-1,2-oxazol-5-yl)benzamide hydrochloride]: the figures for the IC50 against human LSD1(172-833), at MAO-A enzyme and at MAO-B enzyme were < 0.1 µM, > 10 µM and > 10 µM, respectively.
For the compound `O=C(Nc1cnn(-c2ccc(F)cc2)c1)c1cccc([C@@H]2C[C@H]2NC2CCS(=O)(=O)CC2)c1` (relative stereo) [Example 197, 3-(trans-2-((1,1-dioxidotetrahydro-2H-thiopyran-4-yl)amino)cyclopropyl)-N-(1-(4-fluorophenyl)-1H-pyrazol-4-yl)benzamide dihydrochloride], the figures for the IC50 against human LSD1(172-833), against MAO-A enzyme and on MAO-B enzyme were < 0.1 µM, > 10 µM and > 10 µM, respectively.
`CCN1C(=O)COc2cc(NC(=O)c3cccc([C@@H]4C[C@H]4NCC4CC4)c3)ccc21` (relative stereo) [Example 149, 3-(trans-2-((cyclopropylmethyl)amino)cyclopropyl)-N-(4-ethyl-3-oxo-3,4-dihydro-2H-1,4-benzoxazin-7-yl)benzamide trifluoroacetate]: the IC50 is < 0.1 µM against human LSD1(172-833), > 10 µM on MAO-A enzyme and > 10 µM at MAO-B enzyme.
Consider `O=C(NCc1cccc2c1OCCO2)c1ccc([C@@H]2C[C@H]2NCC2CC2)cc1` (relative stereo) [Example 30, 4-(trans-2-((cyclopropylmethyl)amino)cyclopropyl)-N-(2,3-dihydro-1,4-benzodioxin-5-ylmethyl)benzamide trifluoroacetate], for which the IC50 against human LSD1(172-833) was < 0.1 µM; against MAO-A enzyme it was > 10 µM; on MAO-B enzyme, > 10 µM.
For `O=C(Nc1ccc(Oc2ccc(F)cc2)nc1)c1cccc([C@@H]2C[C@H]2NCC2CC2)c1` (relative stereo) [Example 137, 3-(trans-2-((cyclopropylmethyl)amino)cyclopropyl)-N-(6-(4-fluorophenoxyl)pyridin-3-yl)benzamide bis(trifluoroacetate)], the figures for the IC50 on human LSD1(172-833), against MAO-A enzyme and on MAO-B enzyme were < 0.1 µM, > 10 µM and > 10 µM, respectively.
Take `O=C(Nc1ccc(-c2ncccn2)cc1)c1ccc([C@@H]2C[C@H]2NCC2CC2)cc1` (relative stereo) [Example 52, 4-(trans-2-((cyclopropylmethyl)amino)cyclopropyl)-N-(4-(pyrimidin-2-yl)phenyl)benzamide dihydrochloride]: the results for the IC50 against human LSD1(172-833), against MAO-A enzyme and at MAO-B enzyme were < 0.1 µM, > 10 µM and > 10 µM, respectively.
On to `O=C(NC1CCC(F)(F)CC1)c1cccc([C@@H]2C[C@H]2NC2CCN(C3CC3)CC2)c1` (relative stereo) [Example 208, 3-(trans-2-((1-cyclopropylpiperidin-4-yl)amino)cyclopropyl)-N-(4,4-difluorocyclohexyl)benzamide dihydrochloride], for which the IC50 is < 0.1 µM against human LSD1(172-833), > 10 µM against MAO-A enzyme and > 10 µM at MAO-B enzyme.
As for `Cn1cc(NC(=O)c2ccc([C@@H]3C[C@H]3NCC3CC3)cc2)cn1` (relative stereo) [Example 53, 4-(trans-2-((cyclopropylmethyl)amino)cyclopropyl)-N-(1-methyl-1H-pyrazol-4-yl)benzamide dihydrochloride], the IC50 at human LSD1(172-833) is < 0.1 µM; against MAO-A enzyme, > 10 µM; on MAO-B enzyme, > 10 µM.
For `Cc1ccc(CN[C@@H]2C[C@H]2c2ccc(C(=O)NCc3ccccc3)cc2)s1` (relative stereo) [Example 48, N-benzyl-4-(trans-2-(((5-methyl-2-thienyl)methyl)amino)cyclopropyl)benzamide trifluoroacetate], the results for the IC50 at human LSD1(172-833), against MAO-A enzyme and at MAO-B enzyme were < 0.1 µM, 2.6 µM and > 10 µM, respectively.
Regarding `CC(C)(C)n1cc(NC(=O)c2cccc([C@@H]3C[C@H]3NCC3CCOCC3)c2)cn1` (relative stereo) [Example 89, N-(1-tert-butyl-1H-pyrazol-4-yl)-3-(trans-2-((tetrahydro-2H-pyran-4-ylmethyl)amino)cyclopropyl)benzamide dihydrochloride], the IC50 at human LSD1(172-833) is < 0.1 µM; against MAO-A enzyme, > 10 µM; at MAO-B enzyme, > 10 µM.
Consider `O=C(NCc1cccnc1)c1ccc([C@@H]2C[C@H]2NCC2CC2)cc1` (relative stereo) [Example 18, 4-(trans-2-((cyclopropylmethyl)amino)cyclopropyl)-N-(pyridin-3-ylmethyl)benzamide bis(trifluoroacetate)], for which the IC50 against human LSD1(172-833) was < 0.1 µM; at MAO-A enzyme, > 10 µM; at MAO-B enzyme, > 10 µM.
For `COc1cccc(CN[C@@H]2C[C@H]2c2ccc(C(=O)NCc3ccccc3)cc2)c1` (relative stereo) [Example 37, N-benzyl-4-(trans-2-((3-methoxybenzyl)amino)cyclopropyl)benzamide trifluoroacetate], the IC50 at human LSD1(172-833) is < 0.1 µM; against MAO-A enzyme it was 4.5 µM; on MAO-B enzyme, > 10 µM.
The like results for `O=C(NCc1ccccc1)c1ccc([C@@H]2C[C@H]2NCc2ccccc2F)cc1` (relative stereo) [Example 39, N-benzyl-4-(trans-2-((2-fluorobenzyl)amino)cyclopropyl)benzamide trifluoroacetate] were, in that order, < 0.1 µM, 6.6 µM and > 10 µM.
The like results for `N[C@@H]1C[C@H]1c1ccc(C(=O)Nc2ccccc2)cc1` (relative stereo) [Example 1, 4-(trans-2-aminocyclopropyl)-N-phenylbenzamide hydrochloride] were, in that order, < 0.1 µM, 0.1 µM and 3.2 µM.
